{"source": "paper PMC7932029", "about": "(Journal of natural products, 2020)", "key": {"[1]": {"biological_target": "HA-mouse μOR (Mus musculus, UniProt P42866)", "sequence (P42866 whole entry)": "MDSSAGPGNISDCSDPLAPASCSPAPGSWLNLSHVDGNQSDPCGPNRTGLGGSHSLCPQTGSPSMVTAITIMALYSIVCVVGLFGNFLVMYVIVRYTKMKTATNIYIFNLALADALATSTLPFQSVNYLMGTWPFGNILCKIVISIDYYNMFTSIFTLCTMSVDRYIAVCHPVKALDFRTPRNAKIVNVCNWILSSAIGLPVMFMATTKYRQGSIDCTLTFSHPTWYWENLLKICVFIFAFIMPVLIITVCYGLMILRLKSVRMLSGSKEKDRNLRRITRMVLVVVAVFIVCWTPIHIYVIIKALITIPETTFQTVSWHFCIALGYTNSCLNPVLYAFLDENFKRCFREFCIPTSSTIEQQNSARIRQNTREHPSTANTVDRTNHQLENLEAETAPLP", "test": "GloSensor cAMP inhibition assay, μOR", "type": "cell-based", "details": "efficacy normalized to positive control DAMGO"}, "[2]": {"biological_target": "T1, μOR (Homo sapiens, UniProt P35372)", "T1 sequence (P35372 whole entry)": "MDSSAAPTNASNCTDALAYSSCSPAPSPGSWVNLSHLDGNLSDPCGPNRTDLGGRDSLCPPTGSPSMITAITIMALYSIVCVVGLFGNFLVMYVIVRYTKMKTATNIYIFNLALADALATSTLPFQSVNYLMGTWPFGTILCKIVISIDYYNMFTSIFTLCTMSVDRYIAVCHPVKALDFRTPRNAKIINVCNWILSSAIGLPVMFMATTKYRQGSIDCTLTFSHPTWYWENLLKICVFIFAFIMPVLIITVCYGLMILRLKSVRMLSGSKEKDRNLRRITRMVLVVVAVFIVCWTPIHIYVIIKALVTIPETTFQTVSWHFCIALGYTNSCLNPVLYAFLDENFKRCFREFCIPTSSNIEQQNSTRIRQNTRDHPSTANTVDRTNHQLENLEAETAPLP", "test": "PathHunter β-arrestin 2 recruitment assay, μOR"}, "[3]": {"test": "Partition coefficients of akuamma alkaloids in CCS solvent systems", "type": "physicochemical", "details": "for Kacid: 10 mM HCl; for Kbase: 10 mM TEA"}, "[4]": {"biological_target": "T1, μOR", "test": "PDSP primary radioligand displacement screen, μOR", "type": "binding", "details": "10 μM"}, "[5]": {"biological_target": "FLAG-mouse κOR (Mus musculus, UniProt P33534)", "sequence (P33534 whole entry)": "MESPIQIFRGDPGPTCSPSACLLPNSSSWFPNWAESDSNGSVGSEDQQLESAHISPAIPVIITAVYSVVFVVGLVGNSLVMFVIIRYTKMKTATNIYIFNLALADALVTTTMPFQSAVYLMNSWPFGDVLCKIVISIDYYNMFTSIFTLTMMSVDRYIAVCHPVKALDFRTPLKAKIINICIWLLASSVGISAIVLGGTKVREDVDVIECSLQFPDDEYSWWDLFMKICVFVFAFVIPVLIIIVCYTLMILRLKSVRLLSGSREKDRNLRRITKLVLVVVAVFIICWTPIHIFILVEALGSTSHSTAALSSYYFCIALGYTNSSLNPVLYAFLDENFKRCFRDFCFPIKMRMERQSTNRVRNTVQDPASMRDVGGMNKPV", "type": "cell-based"}, "[6]": {"biological_target": "T2, κOR (Homo sapiens, UniProt P41145)", "T2 sequence (P41145 whole entry)": "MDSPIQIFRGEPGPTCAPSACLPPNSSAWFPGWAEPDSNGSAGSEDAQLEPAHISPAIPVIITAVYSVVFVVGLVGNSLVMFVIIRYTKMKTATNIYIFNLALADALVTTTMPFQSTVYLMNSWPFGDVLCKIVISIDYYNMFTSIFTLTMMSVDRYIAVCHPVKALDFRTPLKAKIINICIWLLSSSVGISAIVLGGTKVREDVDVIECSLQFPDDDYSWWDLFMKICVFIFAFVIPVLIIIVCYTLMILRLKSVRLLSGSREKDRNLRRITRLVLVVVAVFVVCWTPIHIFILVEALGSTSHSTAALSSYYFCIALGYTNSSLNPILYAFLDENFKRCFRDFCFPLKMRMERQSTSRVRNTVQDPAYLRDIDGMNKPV", "type": "cell-based"}, "[7]": {"tested_on": "C57BL/6 mice", "test": "Tail flick thermal nociception assay", "type": "in vivo, mouse"}, "[8]": {"tested_on": "C57BL/6 mice", "test": "Hot plate thermal nociception assay", "type": "in vivo, mouse"}, "[9]": {"tested_on": "Wistar rats", "details": "p.o., cited from earlier work"}, "[10]": {"biological_target": "T2, κOR", "test": "PDSP secondary binding assay, κOR"}, "[11]": {"biological_target": "T2, κOR", "type": "binding"}, "[12]": {"biological_target": "human δOR (Homo sapiens, UniProt P41143)", "sequence (P41143 whole entry)": "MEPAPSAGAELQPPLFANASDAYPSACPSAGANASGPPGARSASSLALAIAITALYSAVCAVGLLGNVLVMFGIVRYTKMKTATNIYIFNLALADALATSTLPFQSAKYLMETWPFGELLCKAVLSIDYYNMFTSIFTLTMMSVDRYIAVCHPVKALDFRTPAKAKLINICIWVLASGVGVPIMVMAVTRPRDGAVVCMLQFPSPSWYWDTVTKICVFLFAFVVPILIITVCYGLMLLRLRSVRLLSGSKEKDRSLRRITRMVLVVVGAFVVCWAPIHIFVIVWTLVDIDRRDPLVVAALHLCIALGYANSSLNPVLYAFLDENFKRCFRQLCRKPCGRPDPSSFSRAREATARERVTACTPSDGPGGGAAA", "test": "PathHunter β-arrestin 2 recruitment assay, δOR", "details": "highest concentration tested, in words"}, "[13]": {"biological_target": "FLAG-mouse δOR (Mus musculus, UniProt P32300)", "sequence (P32300 whole entry)": "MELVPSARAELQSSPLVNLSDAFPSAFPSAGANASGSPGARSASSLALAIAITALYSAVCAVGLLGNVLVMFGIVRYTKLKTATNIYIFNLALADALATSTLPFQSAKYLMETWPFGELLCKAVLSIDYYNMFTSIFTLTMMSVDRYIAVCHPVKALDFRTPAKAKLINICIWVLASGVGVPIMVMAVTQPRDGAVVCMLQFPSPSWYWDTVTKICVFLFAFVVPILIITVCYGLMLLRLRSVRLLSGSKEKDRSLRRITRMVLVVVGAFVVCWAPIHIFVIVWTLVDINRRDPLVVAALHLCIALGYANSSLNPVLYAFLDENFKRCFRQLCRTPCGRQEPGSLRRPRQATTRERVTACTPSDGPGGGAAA", "test": "GloSensor cAMP inhibition assay, δOR", "type": "cell-based", "details": "efficacy normalized to positive control Leu-Enk"}, "[14]": {"details": "5 mg/kg p.o., any of the timepoints tested"}}, "note": "Where a name gives a salt, the structure may show the parent alone.", "data": [{"smiles": "C[C@@H](NC(=O)[C@@H](N)Cc1ccc(O)cc1)C(=O)NCC(=O)N(C)[C@@H](Cc1ccccc1)C(=O)NCCO", "note": "[DAMGO, (2S)-2-[[2-[[(2R)-2-[[(2S)-2-Amino-3-(4-hydroxyphenyl)propanoyl]amino]propanoyl]amino]acetyl]-methylamino]-N-(2-hydroxyethyl)-3-phenylpropanamide, reference compound]", "values": [{"measurement": "cAMP α", "setting": "[1]", "value": 100}, {"measurement": "β-arrestin 2 α", "setting": "[2]; efficacy normalized to positive control DAMGO", "value": 100}]}, {"smiles": "C/C=C1/CN2CC[C@@]34c5ccccc5N(C)[C@]35OC[C@@]4(C(=O)OC)[C@H]1C[C@H]25", "note": "[Compound 3, pseudo-akuammigine]", "values": [{"measurement": "Kacid", "setting": "[3]; 1:1:1:1 Hex/EtOAc/MeOH/H2O", "value": "<<0.01"}, {"measurement": "Kbase", "setting": "[3]; 1:1:1:1 Hex/EtOAc/MeOH/H2O", "value": 2.71}, {"measurement": "Kacid", "setting": "[3]; 1:1 EtOAc/H2O", "value": 0.10}, {"measurement": "Kbase", "setting": "[3]; 1:1 EtOAc/H2O", "value": 51.9}, {"measurement": "Kbase", "setting": "[3]; 2:2:3 MTBE/CH3CN/H2O", "value": 87.0}, {"measurement": "Kacid", "setting": "[3]; 3:1.5:4 MTBE/CH3CN/H2O", "value": 0.25}, {"measurement": "Kbase", "setting": "[3]; 3:1.5:4 MTBE/CH3CN/H2O", "value": 30.9}, {"measurement": "Kacid", "setting": "[3]; 3:7:3:7 Hex/EtOAc/MeOH/H2O", "value": "<<0.01"}, {"measurement": "Kbase", "setting": "[3]; 3:7:3:7 Hex/EtOAc/MeOH/H2O", "value": 32.3}, {"measurement": "displacement of [3H]-DAMGO", "setting": "[4]", "value": "displaced"}, {"measurement": "cAMP α", "setting": "[1]", "value": "82 ± 7"}, {"measurement": "cAMP α", "setting": "[5]", "value": "69 ± 8"}, {"measurement": "β-arrestin 2 α", "setting": "[6]", "value": "20 ± 20"}, {"measurement": "antinociception", "setting": "[7]; [14]", "value": "did not produce antinociception"}, {"measurement": "antinociception", "setting": "[7]; 5 mg/kg s.c., 30 minutes", "value": "minimal yet statistically significant antinociception"}, {"measurement": "antinociception", "setting": "[7]; 5 mg/kg s.c., 60 minutes", "value": "minimal yet statistically significant antinociception"}, {"measurement": "antinociception", "setting": "[7]; 10 mg/kg s.c., 30 minutes", "value": "failed to produce antinociception"}, {"measurement": "antinociception", "setting": "[8]; [14]", "value": "did not produce antinociception"}, {"measurement": "antinociception", "setting": "[8]; 5 mg/kg s.c., 30 minutes", "value": "minimal yet statistically significant antinociception"}, {"measurement": "antinociception", "setting": "[8]; 10 mg/kg s.c., 30 minutes", "value": "failed to produce antinociception"}, {"measurement": "antinociception", "setting": "[9]; Wistar rats, 5 mg/kg", "value": "antinociceptive"}, {"measurement": "time of peak antinociceptive activity", "setting": "[9]; rats", "value": 180, "unit": "min"}]}, {"smiles": "C/C=C1/CN2CC[C@]34C(=Nc5ccccc53)[C@@H]2C[C@@H]1[C@@]4(COC(C)=O)C(=O)OC", "note": "[Compound 5, akuammiline]", "values": [{"measurement": "Kacid", "setting": "[3]; 1:1:1:1 Hex/EtOAc/MeOH/H2O", "value": "<<0.01"}, {"measurement": "Kbase", "setting": "[3]; 1:1:1:1 Hex/EtOAc/MeOH/H2O", "value": 0.23}, {"measurement": "Kacid", "setting": "[3]; 1:1 EtOAc/H2O", "value": 0.03}, {"measurement": "Kbase", "setting": "[3]; 1:1 EtOAc/H2O", "value": 28.2}, {"measurement": "Kacid", "setting": "[3]; 2:2:3 MTBE/CH3CN/H2O", "value": 0.27}, {"measurement": "Kbase", "setting": "[3]; 2:2:3 MTBE/CH3CN/H2O", "value": 5.61}, {"measurement": "Kacid", "setting": "[3]; 3:1.5:4 MTBE/CH3CN/H2O", "value": 0.05}, {"measurement": "Kbase", "setting": "[3]; 3:1.5:4 MTBE/CH3CN/H2O", "value": 6.82}, {"measurement": "Kacid", "setting": "[3]; 3:7:3:7 Hex/EtOAc/MeOH/H2O", "value": "<<0.01"}, {"measurement": "Kbase", "setting": "[3]; 3:7:3:7 Hex/EtOAc/MeOH/H2O", "value": 2.53}, {"measurement": "displacement of [3H]-DAMGO", "setting": "[4]", "value": "significantly less displacement"}, {"measurement": "Ki", "setting": "[10]", "value": 400, "unit": "nM"}, {"measurement": "Binding pKi", "setting": "[11]", "value": "−6.0 ± 0.1 (3)"}]}, {"smiles": "C/C=C1/CN2[C@H]3Cc4c([nH]c5ccccc45)[C@@H]2C[C@@H]1[C@]3(CO)C(=O)OC", "note": "[Compound 2, akuammidine]", "values": [{"measurement": "Binding pKi", "setting": "[11]", "value": "−4.8 ± 0.1 (3)"}, {"measurement": "antinociception", "setting": "[7]; 10 mg/kg s.c., 50 minutes", "value": "minimal yet statistically significant antinociception"}, {"measurement": "antinociception", "setting": "[7]; 30 mg/kg s.c., 30 minutes", "value": "minimal yet statistically significant antinociception"}, {"measurement": "antinociception", "setting": "[7]; oral dosing, data not shown", "value": "no antinociception was measurable"}, {"measurement": "antinociception", "setting": "[8]; 3 mg/kg s.c., 110 minutes", "value": "minimal, yet statistically significant, antinociception"}, {"measurement": "antinociception", "setting": "[8]; oral dosing, data not shown", "value": "no antinociception was measurable"}, {"measurement": "β-arrestin 2 recruitment", "setting": "[2]; highest concentration tested, in words", "value": "minimal recruitment"}, {"measurement": "β-arrestin recruitment", "setting": "[12]", "value": "minimal recruitment"}]}, {"smiles": "CN1CC[C@]23c4c5ccc(O)c4O[C@H]2[C@@H](O)C=C[C@H]3[C@H]1C5", "note": "[morphine, morphine sulfate pentahydrate, reference compound]", "values": [{"measurement": "antinociception", "setting": "[7]; 6 mg/kg s.c., 30 min", "value": "significant antinociception"}, {"measurement": "antinociception", "setting": "[8]; 6 mg/kg s.c., 30 min", "value": "significant antinociception"}]}, {"smiles": "C/C=C1/CN2CC[C@]34C(=C(C(=O)OC)[C@H]1C[C@H]23)Nc1ccccc14", "note": "[Compound 4, akuammicine]", "values": [{"measurement": "Kacid", "setting": "[3]; 1:1:1:1 Hex/EtOAc/MeOH/H2O", "value": "<<0.01"}, {"measurement": "Kbase", "setting": "[3]; 1:1:1:1 Hex/EtOAc/MeOH/H2O", "value": 1.63}, {"measurement": "Kacid", "setting": "[3]; 1:1 EtOAc/H2O", "value": 0.02}, {"measurement": "Kbase", "setting": "[3]; 1:1 EtOAc/H2O", "value": 222}, {"measurement": "Kacid", "setting": "[3]; 2:2:3 MTBE/CH3CN/H2O", "value": 0.61}, {"measurement": "Kbase", "setting": "[3]; 2:2:3 MTBE/CH3CN/H2O", "value": 27.7}, {"measurement": "Kacid", "setting": "[3]; 3:1.5:4 MTBE/CH3CN/H2O", "value": 0.14}, {"measurement": "Kbase", "setting": "[3]; 3:1.5:4 MTBE/CH3CN/H2O", "value": 64.1}, {"measurement": "Kacid", "setting": "[3]; 3:7:3:7 Hex/EtOAc/MeOH/H2O", "value": "<<0.01"}, {"measurement": "Kbase", "setting": "[3]; 3:7:3:7 Hex/EtOAc/MeOH/H2O", "value": 28.9}, {"measurement": "displacement of [3H]-DAMGO", "setting": "[4]", "value": "displaced"}, {"measurement": "Ki", "setting": "[10]", "value": 170, "unit": "nM"}, {"measurement": "Binding pKi", "setting": "[11]", "value": "−7.1 ± 0.1 (3)"}]}, {"smiles": "C/C=C1/CN2[C@@H]3C[C@@]45c6ccccc6N[C@]4(O3)[C@@H]2C[C@@H]1[C@@]5(COC(C)=O)C(=O)OC", "note": "[Compound 6, picraline]", "values": [{"measurement": "Kacid", "setting": "[3]; 1:1:1:1 Hex/EtOAc/MeOH/H2O", "value": "<<0.01"}, {"measurement": "Kbase", "setting": "[3]; 1:1:1:1 Hex/EtOAc/MeOH/H2O", "value": 0.82}, {"measurement": "Kacid", "setting": "[3]; 1:1 EtOAc/H2O", "value": 0.03}, {"measurement": "Kbase", "setting": "[3]; 1:1 EtOAc/H2O", "value": 16.09}, {"measurement": "Kacid", "setting": "[3]; 2:2:3 MTBE/CH3CN/H2O", "value": 0.56}, {"measurement": "Kbase", "setting": "[3]; 2:2:3 MTBE/CH3CN/H2O", "value": 11.4}, {"measurement": "Kacid", "setting": "[3]; 3:1.5:4 MTBE/CH3CN/H2O", "value": 0.10}, {"measurement": "Kbase", "setting": "[3]; 3:1.5:4 MTBE/CH3CN/H2O", "value": 17.4}, {"measurement": "Kacid", "setting": "[3]; 3:7:3:7 Hex/EtOAc/MeOH/H2O", "value": 0.01}, {"measurement": "Kbase", "setting": "[3]; 3:7:3:7 Hex/EtOAc/MeOH/H2O", "value": 7.29}, {"measurement": "displacement of [3H]-DAMGO", "setting": "[4]", "value": "significantly less displacement"}]}, {"smiles": "C/C=C1/CN2CC[C@@]34c5cc(O)ccc5N(C)[C@]35OC[C@@]4(C(=O)OC)[C@H]1C[C@H]25", "note": "[Compound 1, akuammine]", "values": [{"measurement": "displacement of [3H]-DAMGO", "setting": "[4]", "value": "displaced"}, {"measurement": "cAMP α", "setting": "[1]", "value": "62 ± 6"}, {"measurement": "cAMP inhibition", "setting": "[5]", "value": "did not inhibit cAMP production"}, {"measurement": "cAMP α", "setting": "[13]", "value": "50 ± 35"}, {"measurement": "β-arrestin 2 α", "setting": "[6]", "value": "35 ± 6"}, {"measurement": "antinociception", "setting": "[7]; 3 mg/kg s.c., 110 minutes", "value": "minimal yet statistically significant antinociception"}, {"measurement": "antinociception", "setting": "[7]; 60 mg/kg s.c., 30 minutes", "value": "minimal yet statistically significant antinociception"}, {"measurement": "antinociception", "setting": "[7]; oral dosing, data not shown", "value": "no antinociception was measurable"}, {"measurement": "antinociception", "setting": "[8]; 3 mg/kg s.c., 110 minutes", "value": "minimal yet statistically significant antinociception"}, {"measurement": "antinociception", "setting": "[8]; 30 mg/kg s.c., 60 minutes", "value": "minimal yet statistically significant antinociception"}, {"measurement": "antinociception", "setting": "[8]; 60 mg/kg s.c., 30 minutes", "value": "minimal yet statistically significant antinociception"}, {"measurement": "antinociception", "setting": "[8]; oral dosing, data not shown", "value": "no antinociception was measurable"}]}]}
